{
  "source": "patent US11986513B2",
  "about": "“GAL(1-15) and analogues thereof for use in the prevention and/or treatment of alcohol-related effects and disorders” (UNIVERSIDAD DE MÁLAGA, priority 2017, dated 2024)",
  "key": {"rats": {"tested_on": "rats", "assay": "Locomotor activity (open field), ethanol-reduced locomotion", "type": "in vivo, rat", "details": "ethanol 1.75 g/kg i.p., five minutes after administration, open field", "description": "In this experiment, the effects of GAL(1-15) (3 nmol) on ethanol-reduced locomotion (1.75 g/kg; intraperitoneal (i.p.)) (Vallof et al., 2016) were investigated. Locomotor activity was recorded in rat open field (100×100×50 cm) where animals were individually placed and left to freely explore. Their behaviour was recorded over a 30-minute period by ceiling-mounted video camera, and locomotor activity was analysed using the video-tracking software EthovisionXT. After each assay, all surfaces were cleaned with a paper towel and 70% ethanol solution. For locomotor activity, total distance travelled (cm) and mean speed (cm/s) were recorded. Groups of rats were administered via i.c.v. GAL(1-15) or vehicle 20 minutes before the test; i.p. ethanol (1.75 g/kg) or saline solution administration was performed 5 minutes before the test."}, "GALR1": {"tested_on": "GALR1", "details": "for GALR1 mRNA expression in the corpus striatum: naive rats, mean ± SEM", "description": "(§1) The method to perform RNA isolation and RT-PCR was described previously (Millon et al., 2015). Total RNA was isolated from the corpus striatum using RNeasy Lipid Tissue kit (Qiagen, Hilden, Germany). cDNA was obtained using a Reverse Transcriptase Core kit (Eurogentec, Seraing, Belgium). These steps were performed according to the manufacturer's instructions.\n(§2) All PCR analyses were performed in triplicate using Power SYBR Green PCR Master Mix (Applied Biosystems, Foster City, USA) in the 7500 RT-PCR system (Applied Biosystems, Foster City, USA). The primer sequences used in this study are:\n(§3) The data was analysed using the comparative Ct method and normalised to measurements of glyceraldehyde-3-phosphate dehydrogenase (GAPDH) mRNA.\n(§4) Groups of naïve rats were injected i.p. with ethanol at 4 g/kg (Bilbao et al., 2016), dissolved in a 0.9% sterile saline solution (w/v), and 0, 2, and 4 hours after the injection the brains were extracted after a rapid decapitation. The corpus striatum was quickly extracted from all the animals and frozen immediately on solid CO2 until use. The method to perform RNA isolation and RT-PCR was described previously."}, "GALR2": {"tested_on": "GALR2", "details": "for GALR2 mRNA expression in the corpus striatum: naive rats, mean ± SEM", "description": "as §1, §2, §3, §4"}, "[1]": {"tested_on": "hepatic cytosolic alcohol dehydrogenase (ADH)", "description": "The activity of hepatic cytosolic alcohol dehydrogenase (ADH) in the rats from the two-bottle choice test was analysed. ADH activity has a good correlation with ethanol elimination rates in vivo (Lumeng et al., 1979) and chronic ethanol administration causes an increase in ADH activity (Buris et al., 1985).\nThe livers were removed 2 hours after i.c.v. injections and frozen in solid CO2 until use. Determination of ADH activity was performed in homogenized liver tissue in a TrisHCl solution (10 mM, pH=8.8; 0.5 mM dithiothreitol) centrifuged at 12.000 g for 10 minutes. ADH activity was evaluated using a microassay adapted to Cobas Mira analyser according to Shephard and colleagues (Shephard et al., 1987). Briefly, 300 μl of NAD solution (2.9 mM in 0.1 M Glycine/NaOH: p=10) was added to 30 μl of sample. The first optical reading was recorded before the addition of 20 μl of 17 mM ethanol, and then the rate of change in absorption of the NADH chromogen was recorded at 340 nm over time on the Cobas Mira analyser at 37° C. One activity unit was defined as the reduction of […] NAD to NADH/min at 37° C."}, "[2]": {"details": "0 hours after i.p. injection of EtOH (4 g/kg)"}, "[3]": {"details": "2 hours after i.p. injection of EtOH (4 g/kg)"}, "[4]": {"details": "4 hours after i.p. injection of EtOH (4 g/kg)"}},
  "note": "Where two headings read alike, the source gives them in different places.",
  "data": [
    {"smiles": "CCO", "note": "[EtOH, ethanol]", "values": [
      {"measurement": "distance travelled", "setting": "rats", "value": "reduced"},
      {"measurement": "mean speed", "setting": "rats", "value": "reduced"},
      {"measurement": "GALR1 mRNA expression in the corpus striatum", "setting": "GALR1; [2]", "value": "0.87 ± 0.2"},
      {"measurement": "GALR1 mRNA expression in the corpus striatum", "setting": "GALR1; [3]", "value": "0.60 ± 0.1"},
      {"measurement": "GALR1 mRNA expression in the corpus striatum", "setting": "GALR1; [4]", "value": "0.47 ± 0.1"},
      {"measurement": "effect on GALR1 expression in the corpus striatum", "setting": "GALR1; single injection of ethanol 4 g/kg i.p., at 2 and 4 hours", "value": "no effect"},
      {"measurement": "GALR2 mRNA expression in the corpus striatum", "setting": "GALR2; [2]", "value": "1.21 ± 0.1"},
      {"measurement": "GALR2 mRNA expression in the corpus striatum", "setting": "GALR2; [3]", "value": "1.23 ± 0.1"},
      {"measurement": "GALR2 mRNA expression in the corpus striatum", "setting": "GALR2; [4]", "value": "1.44 ± 0.1"},
      {"measurement": "effect on GALR2 mRNA levels in the corpus striatum", "setting": "GALR2; single injection of ethanol 4 g/kg i.p., any time point", "value": "No effects were observed"},
      {"measurement": "ADH activity (liver)", "setting": "[1]; voluntary ethanol intake in two-bottle choice test, i.c.v. cerebrospinal fluid vehicle, mean ± SEM", "value": "313.1 ± 10.6", "unit": "protein IU/g"},
      {"measurement": "ADH activity compared with the baseline group", "setting": "[1]; voluntary ethanol intake through the two-bottle choice test protocol", "value": "significant increase"}
    ]}
  ]
}
